In patent US7153653B2, “Differentially methylated sequences in pancreatic cancer” (The Johns Hopkins University School of Medicine, priority 2001, dated 2006):

Assays:
[1] = tested on: Cyclin G expression in pancreatic cancer cell line PL8; experiment: RT-PCR analysis of Cyclin G expression after 5Aza-dC treatment; format: cell-based, human; conditions: methylated cell line PL8, 5Aza-dC at a final concentration of 1 μM for 5 days, coamplified with GAPDH
Description: (§1) Five pancreatic cancer cell lines (PL3, PL8, CAPAN2, Panc1, and MiaPaca2) and four normal pancreata were used for RT-PCR analysis. The cell lines were treated with demethylating agent 5Aza-dC (Sigma Chemical Co.) at a final concentration of 1 μM for 5 days. Total RNA was prepared using TRIzol (Life Technologies, Inc.), reverse-transcribed and amplified. As a control for cDNA integrity, glyceraldehyde-3-phosphate dehydrogenase gene (GAPDH) was also amplified. Primer sequences for RT-PCR are listed in Table 3 and are available at http://pathology2.jhu.edu/pancreas/prim0425.htm, which website is incorporated herein by reference.
(§2) Partial methylation (˜50%) of the 5′ CpG island of Cyclin G in PL8 (FIG. 4C) was associated with decreased expression of Cyclin G by RT-PCR. The 5′ CpG island of Cyclin G was not methylated in a panel of normal pancreata. Cyclin G was expressed in 4 normal pancreata by RT-PCFR. […] Thus, hypermethylation of the 5′ CpG islands of Cyclin G and ppENK is coincides with decreased expression in pancreatic cancers.

[2] = tested on: ppENK expression in pancreatic cancer cell lines PL3, CAPAN2, MiaPaca2 and Panc1; experiment: RT-PCR analysis of ppENK expression after 5Aza-dC treatment; format: cell-based, human; conditions: 4 methylated cell lines (PL3, CAPAN2, MiaPaca2, Panc1), 5Aza-dC at a final concentration of 1 μM for 5 days, coamplified with GAPDH
Description: as §1, §2

[3] = listed as 5-aza-2′-deoxycytidine

Nc1ncn([C@H]2C[C@H](O)[C@@H](CO)O2)c(=O)n1 [5Aza-dC, 5-aza-2′-deoxycytidine]
Cyclin G expression by RT-PCR [1]: restored the expression of Cyclin G
Cyclin G expression by RT-PCR [1, 3]: reversible
Cyclin G expression by RT-PCR ([1]; listed as 5 Aza-dC): increased Cyclin G expression
ppENK expression by RT-PCR [2]: restored ppENK expression in all 4 cell lines
ppENK expression by RT-PCR [2, 3]: reversible
ppENK expression by RT-PCR ([2]; listed as 5 Aza-dC): restored the ppENK expression
